This is an account of results in US5863540A, “Adhesion molecule” (Duke University, priority 1993, dated 1999).

The subject of experiment [1] is T cell receptor-mediated T cell activation. Kind of experiment: T cell receptor-mediated T cell activation (anti-CD3ε mab Leu 4) of PBMC, 3H-thymidine, CD44 peptides. The class given is cell-based, human. The procedure:
Synthetic peptides were prepared by FMoc or TBoc chemistry, purified usin
HPLC, and resuspended in RPMI media prior to addition to 4 day in vitro
cultures. Following 4 days in culture, 3Hthymidine was added, and
following an incubation of 4 hours, the cultures were harvested using an
automated multiwell harvester using standard techiques.

Experiment [2] concerns CD2-Mediated T Cell Activation. Briefly: T Cell Activation Assay: proliferation of PBMC stimulated with CD2 mabs 35.1 and 9-1. The experiment is classed as cell-based, human. The settings on record: soluble, free protein instead of liposomes, data not shown. The method, then:
CD44 Liposomes. Liposomes were prepared by the method of Mimms et al. ((1981) Biochemistry 20:833-840), using 1 μM purified CD44 or control glycophorin protein, 1 nM L-α-dioleoyl lecthin (Avanti Polar Lipids, Birmingham, Ala.), and 240 nM OG. Liposomes were analyzed for content of the appropriate protein using a novel labelling technique and flow cytometry. Liposomes were incubated with 5-(N-octadecanoyl) aminofluorescein (Molecular Probes, Eugene, Oreg.) in PBS×10 min at room temperature. Fluoresceinated liposomes were then reacted with […] magnetic beads (Dynabeads M-450 Goat anti-Mouse IgG, Dynal Inc., Great Neck, N.Y.) coated with CD44 (A3D8) or anti-glycophorin (E3,E4,E5) mAbs. After 45 minutes (4° C.), with continuous end-over-end rotation, beads were washed ×3 in PBS using a magnet to immobilize the beads during PBS changes. Fluoresceinated liposome-bead conjugates were then analyzed by flow cytometry.
T Cell Activation Assay. PBMC from healthy donors were stimulated with optimal mitogenic concentration of CD2 mabs 35.1 and 9-1 as described (Denning et al.). Where indicated, CD44 or control glycophorin liposomes (final protein range used was 28-140 nM) were added to these cultures 20 min prior to addition of CD2 mabs. […]

A word on the % Inhibition: it is the change of the read-out against control, counted positive when it falls. A higher % Inhibition goes with strong suppression. Take “(C)NRNDVTGGRRDPNHSEGS (CNRNDVTGGRRDPNHSEGS; N-terminal Cys) [CD44-19A]”: in experiment [1] (1 mg/ml peptide, anti-CD3 triggered PBMC cultures), the “effect on T cell activation (in words)” value was “inhibition of T cell activation”. In addition, the “% Inhibition” value in experiment [1] (peptide 1 mg/ml, Leu 4 1:1000, 4 day culture) is on record as 75%. Besides, the “Δ CPM 3H-Thymidine/106 Cells in Culture” value in experiment [1] (peptide 1 mg/ml, Leu 4 1:1000, 4 day culture, control 199,816) is on record as 50,318 Δ CPM 3H-Thymidine/106 Cells.

Take “soluble, free CD44 protein: CD44 protein affinity-purified on A3D8-Sepharose from HuT 78 T cell lysate, single band at 80-85 kD”: the “effect on CD2 stimulated PBMC culture” value in experiment [2] is “Identical results”.
